The target of test [1] is Neuraminidase (Influenza A virus) (UniProt B4URF0). The experiment in a line: Inhibition of Influenza A virus (A/California/04/2009(H1N1)) wild-type neuraminidase using MU-NANA as substrate at 1000 nM after 1 hr.
Test [2] deals with T1, Neuraminidase (Influenza A virus, UniProt B4URF0). On the set-up: species or system Influenza A virus (A/California/04/2009(H1N1)).
Test [3] has as its target T1, Neuraminidase. On the set-up: species or system Influenza A virus (A/Anhui/1/2005(H5N1)).
Test [4] deals with T1, Neuraminidase. The test can be described thus: Inhibition of Influenza A virus SN33 H1N1 neuraminidase using MU-NANA as substrate after 1 hr by spectrofluorometric analysis.

Molecules are shown by their SMILES. Calls of active or inactive are those of the source. No cut-off for these calls is given here.

Chain of Neuraminidase (Influenza A virus) (B4URF0 as listed by the source): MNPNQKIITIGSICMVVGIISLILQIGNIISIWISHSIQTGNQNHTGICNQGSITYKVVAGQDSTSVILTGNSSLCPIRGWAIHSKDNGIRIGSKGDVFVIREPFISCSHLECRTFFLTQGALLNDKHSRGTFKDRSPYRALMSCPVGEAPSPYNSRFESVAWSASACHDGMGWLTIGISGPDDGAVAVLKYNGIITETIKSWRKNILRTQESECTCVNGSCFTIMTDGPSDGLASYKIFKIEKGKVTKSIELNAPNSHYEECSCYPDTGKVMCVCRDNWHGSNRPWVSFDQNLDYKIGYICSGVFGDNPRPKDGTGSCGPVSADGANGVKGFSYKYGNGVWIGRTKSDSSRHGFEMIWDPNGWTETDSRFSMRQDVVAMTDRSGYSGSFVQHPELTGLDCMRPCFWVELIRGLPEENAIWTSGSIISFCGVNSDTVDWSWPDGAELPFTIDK
T1 sequence (B4URF0 whole entry): as the sequence (B4URF0 as listed by the source) above

Consider `C=CC/N=C(\N)N[C@H]1CC(C(=O)O)=C[C@@H](OC(CC)CC)[C@@H]1NC(C)=O`, for which, in test [1], the inhibition result is “inactive”.
In the case of `CCC(CC)O[C@@H]1C=C(C(=O)O)C[C@H](N/C(N)=N/C)[C@H]1NC(C)=O`, the concentration for half-maximal inhibition (IC50) at Neuraminidase [2] turned out to be 1.73 nM; at Neuraminidase [3] it was 3.6 nM.
Taken in the same sequence, the figures for `CCC(CC)O[C@@H]1C=C(C(=O)O)C[C@H](N/C(N)=N/O)[C@H]1NC(C)=O` were 3.7 nM and 33 nM.
With `CCC(CC)O[C@@H]1C=C(C(=O)O)C[C@H](N/C(N)=N/C(C)C)[C@H]1NC(C)=O`, the inhibition entry in test [1] is “inactive”.
On the same count and under the same terms, in the case of `CCC(CC)O[C@@H]1C=C(C(=O)O)C[C@H](N/C(N)=N/C2CC2)[C@H]1NC(C)=O` it was “inactive”; in that of `CC/N=C(\N)N[C@H]1CC(C(=O)O)=C[C@@H](OC(CC)CC)[C@@H]1NC(C)=O`, “inactive”.
Regarding `CC(=O)N[C@H]1C([C@H](O)[C@H](O)CO)OC(C(=O)O)=C[C@@H]1NC(=N)NC(=O)CSc1ccc2ccccc2c1` (stereo partly specified), inhibition at Neuraminidase [4] was half-maximal at 20 nM (IC50).
Regarding `CCC/N=C(\N)N[C@H]1CC(C(=O)O)=C[C@@H](OC(CC)CC)[C@@H]1NC(C)=O`, the inhibition result in test [1] was “inactive”.
Same read-out and setting: in the case of `CCC(CC)O[C@@H]1C=C(C(=O)O)C[C@H](N/C(N)=N/CC(F)(F)F)[C@H]1NC(C)=O` it was “inactive”.

As usually defined, the IC50 is the concentration at which inhibition is half-maximal. A high value points to weaker potency in that assay.
